System: MKN1 cells
Assay: MKN1 CTG proliferation assay (120 h) (gastric cancer, wt amplified)
Assay type: cell-based
Settings: Homo sapiens, MKN-1
Protocol: (§1) MKN1 cells (JCRB0252) are dispensed into black 384-well plates, flat and clear bottom (Greiner, PNr. 781091) at a density of 200 cells per well in 60 μl RPMI-1640 ATCC-Formulation (Gibco #A10491)+10% FCS (fetal calf serum, HyClone, SH30084.03). Cells are incubated overnight at 37° C. in a humidified tissue culture incubator at 5% CO2. Compounds (10 mM stock in DMSO) are added at logarithmic dose series using the ECHO acoustic liquid handler system (Beckman Coulter), normalizing for added DMSO and including DMSO controls. All compound treatments are performed in technical duplicates. For the TO time point measurement, untreated cells are analyzed at the time of compound addition. Plates are incubated for 120 h, and cell viability is measured using CellTiter-Glo luminescent cell viability reagent (Promega product code G7570). Viability (stated as percent of control) is defined as relative luminescence units RLU of each well divided by the RLU of cells in DMSO controls. IC50 values are determined from viability measurements by non-linear regression using a four-parameter model.
(§2) IC50 values of representative compounds according to the invention measured with these assays in the indicated cell lines are presented in Table 46.

Structure (SMILES)	IC50 [nM]
CCn1c(=O)n([C@@H]2CCCOC2)c2nc(-c3onc4c3CCC[C@@]43CCCc4sc(N)c(C#N)c43)nc(OCC3(CN4CCCC4)CC3)c21 [I-35]	978
Cc1nc2c(O[C@@H](C)[C@@H]3CCCN3C)nc(-c3onc4c3CCC[C@@]43CCCc4sc(N)c(C#N)c43)nc2n1[C@@H]1CCOC1 [I-39]	29
CO[C@@H]1C[C@@H]([C@H](C)Oc2nc(-c3onc4c3CCC[C@@]43CCCc4sc(N)c(C#N)c43)nc3c2CN(C2COC2)C[C@]32CCOC2)N(C)C1 [I-58]	21
COCCn1c(=O)n([C@@H]2CCOC2)c2nc(-c3onc4c3CCC[C@@]43CCCc4sc(N)c(C#N)c43)nc(O[C@@H](C)[C@@H]3CCCN3C)c21 [I-1]	300
C[C@H](Oc1nc(-c2onc3c2CCC[C@@]32CCCc3sc(N)c(C#N)c32)nc2c1n(C)c(=O)n2[C@@]12COC[C@@H]1C2)[C@@H]1CCCN1C [I-29]	5
C[C@H](Oc1nc(-c2onc3c2CCC[C@@]32CCCc3sc(N)c(C#N)c32)nc2c1N(C)C(=O)CN2[C@@H]1CCOC1)[C@@H]1CCCN1C [I-37]	319
CO[C@@H]1C[C@@H]([C@H](C)Oc2nc(-c3onc4c3CCC[C@@]43CCCc4sc(N)c(C#N)c43)nc3c2n(C)c(=O)n3[C@@H]2CCCOC2)N(C)C1 [I-14]	48
C[C@H](Oc1nc(-c2noc3c2CCC[C@@]32CCCc3sc(N)c(C#N)c32)nc2c1CN(c1ncccn1)[C@@]21CCOC1)[C@@H]1CCCN1C [II-7b]	635

System: AsPC-1 cells
Assay: AsPC-1 CTG proliferation assay (120 h) (pancreatic cancer, G12D)
Assay type: cell-based
Settings: Homo sapiens, ASPC1
Protocol: as §1, with “AsPC-1” for “MKN1”, “(ATCC CRL-1682)” for “(JCRB0252)”, “500” for “200”, “RPMI” for “RPMI-1640”, “(PAN P04-18047)+10%” for “(Gibco #A10491)+10%”
as §2

Structure (SMILES)	IC50 [nM]
CCn1c(=O)n([C@@H]2CCCOC2)c2nc(-c3onc4c3CCC[C@@]43CCCc4sc(N)c(C#N)c43)nc(OCC3(CN4CCCC4)CC3)c21 [I-35]	4250
Cc1nc2c(O[C@@H](C)[C@@H]3CCCN3C)nc(-c3onc4c3CCC[C@@]43CCCc4sc(N)c(C#N)c43)nc2n1[C@@H]1CCOC1 [I-39]	353
CO[C@@H]1C[C@@H]([C@H](C)Oc2nc(-c3onc4c3CCC[C@@]43CCCc4sc(N)c(C#N)c43)nc3c2CN(C2COC2)C[C@]32CCOC2)N(C)C1 [I-58]	314
COCCn1c(=O)n([C@@H]2CCOC2)c2nc(-c3onc4c3CCC[C@@]43CCCc4sc(N)c(C#N)c43)nc(O[C@@H](C)[C@@H]3CCCN3C)c21 [I-1]	705
C[C@H](Oc1nc(-c2onc3c2CCC[C@@]32CCCc3sc(N)c(C#N)c32)nc2c1n(C)c(=O)n2[C@@]12COC[C@@H]1C2)[C@@H]1CCCN1C [I-29]	322
C[C@H](Oc1nc(-c2onc3c2CCC[C@@]32CCCc3sc(N)c(C#N)c32)nc2c1N(C)C(=O)CN2[C@@H]1CCOC1)[C@@H]1CCCN1C [I-37]	4120
CO[C@@H]1C[C@@H]([C@H](C)Oc2nc(-c3onc4c3CCC[C@@]43CCCc4sc(N)c(C#N)c43)nc3c2n(C)c(=O)n3[C@@H]2CCCOC2)N(C)C1 [I-14]	767
C[C@H](Oc1nc(-c2noc3c2CCC[C@@]32CCCc3sc(N)c(C#N)c32)nc2c1CN(c1ncccn1)[C@@]21CCOC1)[C@@H]1CCCN1C [II-7b]	629

System: Ba/F3 cells KRAS G12C
Assay: Ba/F3 proliferation assay (KRAS G12C)
Assay type: cell-based
Settings: Mus musculus, BaF3, 72 h, AlamarBlue viability
Protocol: (§3) Ba/F3 cells are ordered from DSMZ (ACC300, Lot17) and grown in RPMI-1640 (ATCC 30-2001)+10% FCS+10 ng/mL IL-3 at 37° C. in 5% […] atmosphere. Plasmids containing KRASG12 mutants (i.e. […], G12C, G12V) are obtained from GeneScript. To generate KRASG12-dependent Ba/F3 models, Ba/F3 cells are transduced with retroviruses containing vectors that harbor KRASG12 isoforms. Platinum-E cells (Cell Biolabs) are used for retrovirus packaging. Retrovirus is added to Ba/F3 cells. To ensure infection, 4 μg/mL polybrene is added and cells are spinfected. Infection efficiency is confirmed by measuring GFP-positive cells using a cell analyzer. Cells with an infection efficiency of 10% to 20% are further cultivated and puromycin selection with 1 μg/mL is initiated. As a control, parental Ba/F3 cells are used to show selection status. Selection is considered successful when parental Ba/F3 cells cultures died. To evaluate the transforming potential of KRASG12 mutations, the growth medium is no longer supplemented with IL-3. Ba/F3 cells harboring the empty vector are used as a control. Approximately ten days before conducting the experiments, puromycin is left out.
(§4) For proliferation assays, Ba/F3 cells are seeded into 384-well plates at 1.5×1 (M cells/60 μL in growth media (RPMI-1640+10% FCS). Compounds (10 mM stock in DMSO) are added at logarithmic dose series using the ECHO acoustic liquid handler system (Beckman Coulter), normalizing for added DMSO and including DMSO controls. All compound treatments are performed in technical duplicates. For the TO time point measurement, untreated cells are analyzed at the time of compound addition. Treated cells are incubated for 72 h at 37° C. with 5% CO2 and cell viability is measured in the PerkinElmer Envision Multimode Reader using AlamarBlue™ (ThermoFisher) viability stain. Viability (stated as percent of control) is defined as relative fluorescence units RFU of each well divided by the RFU of cells in DMSO controls. IC50 values are determined from viability measurements by non-linear regression using a four-parameter model.

Structure (SMILES)	IC50 [nM]
CCn1c(=O)n([C@@H]2CCCOC2)c2nc(-c3onc4c3CCC[C@@]43CCCc4sc(N)c(C#N)c43)nc(OCC3(CN4CCCC4)CC3)c21 [I-35]	177
Cc1nc2c(O[C@@H](C)[C@@H]3CCCN3C)nc(-c3onc4c3CCC[C@@]43CCCc4sc(N)c(C#N)c43)nc2n1[C@@H]1CCOC1 [I-39]	24
CO[C@@H]1C[C@@H]([C@H](C)Oc2nc(-c3onc4c3CCC[C@@]43CCCc4sc(N)c(C#N)c43)nc3c2CN(C2COC2)C[C@]32CCOC2)N(C)C1 [I-58]	4
COCCn1c(=O)n([C@@H]2CCOC2)c2nc(-c3onc4c3CCC[C@@]43CCCc4sc(N)c(C#N)c43)nc(O[C@@H](C)[C@@H]3CCCN3C)c21 [I-1]	15
C[C@H](Oc1nc(-c2onc3c2CCC[C@@]32CCCc3sc(N)c(C#N)c32)nc2c1n(C)c(=O)n2[C@@]12COC[C@@H]1C2)[C@@H]1CCCN1C [I-29]	2
C[C@H](Oc1nc(-c2onc3c2CCC[C@@]32CCCc3sc(N)c(C#N)c32)nc2c1N(C)C(=O)CN2[C@@H]1CCOC1)[C@@H]1CCCN1C [I-37]	265
CO[C@@H]1C[C@@H]([C@H](C)Oc2nc(-c3onc4c3CCC[C@@]43CCCc4sc(N)c(C#N)c43)nc3c2n(C)c(=O)n3[C@@H]2CCCOC2)N(C)C1 [I-14]	5
C[C@H](Oc1nc(-c2noc3c2CCC[C@@]32CCCc3sc(N)c(C#N)c32)nc2c1CN(c1ncccn1)[C@@]21CCOC1)[C@@H]1CCCN1C [II-7b]	61

System: not listed separately
Assay: Metabolic (microsomal) stability assay, human liver microsomes (HLM)
Assay type: in vitro ADME
Settings: 1 μM test compound, predicted clearance as percent of liver blood flow
Protocol: The metabolic degradation of the test compound is assayed at 37° C. with pooled liver microsomes (mouse (MLM), rat (RLM) or human (HLM)). The final incubation volume of 48 μL per time point contains TRIS buffer (pH 7.5; 0.1 M), magnesium chloride (6.5 mM), microsomal protein (0.5 mg/mL for mouse/rat, 1 mg/mL for human specimens) and the test compound at a final concentration of 1 μM. Following a short preincubation period at 37° C., the reactions are initiated by addition of 12 μL beta-nicotinamide adenine dinucleotide phosphate, reduced form (NADPH, 10 mM) and terminated by transferring an aliquot into solvent after different time points (0, 5, 15, 30, 60 min). Additionally, the NADPH-independent degradation is monitored in incubations without NADPH, terminated at the last time point by addition of acetonitrile. The quenched incubations are pelleted by centrifugation (4,000 rpm, 15 min). An aliquot of the supernatant is assayed by LC-MS/MS to quantify the concentration of parent compound in the individual samples.
In vitro intrinsic clearance (CLint,in vitro) is calculated from the time course of the disappearance of the test drug during the microsomal incubation. Each plot is fitted to the first-order elimination rate constant as C(t)=C0*exp(−ke*t), where C(t) and C0 are the concentration of unchanged test drug at incubation time t and that at preincubation and ke is the disappearance rate constant of the unchanged drug. Subsequently, CLint, in vitro (μL min^−1·amount protein) values are converted to predicted CLint,in vivo (mL min^−1·kg^−1) from incubation parameters according to the equation CLint, in vivo=CLint, in vitro×(incubation volume (mL)/amount protein (mg))×(amount protein (mg)/g liver tissue)×(liver weight/body wt.).
For better across species comparison the predicted clearance is expressed as percent of the liver blood flow [% QH] (mL min^−1·kg^−1) in the individual species. In general, high stability (corresponding to low % QH) of the compounds across species is desired.

Structure (SMILES)	HLM QH [%]
CCn1c(=O)n([C@@H]2CCCOC2)c2nc(-c3onc4c3CCC[C@@]43CCCc4sc(N)c(C#N)c43)nc(OCC3(CN4CCCC4)CC3)c21 [I-35]	53
Cc1nc2c(O[C@@H](C)[C@@H]3CCCN3C)nc(-c3onc4c3CCC[C@@]43CCCc4sc(N)c(C#N)c43)nc2n1[C@@H]1CCOC1 [I-39]	57
CO[C@@H]1C[C@@H]([C@H](C)Oc2nc(-c3onc4c3CCC[C@@]43CCCc4sc(N)c(C#N)c43)nc3c2CN(C2COC2)C[C@]32CCOC2)N(C)C1 [I-58]	52
COCCn1c(=O)n([C@@H]2CCOC2)c2nc(-c3onc4c3CCC[C@@]43CCCc4sc(N)c(C#N)c43)nc(O[C@@H](C)[C@@H]3CCCN3C)c21 [I-1]	65
C[C@H](Oc1nc(-c2onc3c2CCC[C@@]32CCCc3sc(N)c(C#N)c32)nc2c1n(C)c(=O)n2[C@@]12COC[C@@H]1C2)[C@@H]1CCCN1C [I-29]	<24
C[C@H](Oc1nc(-c2onc3c2CCC[C@@]32CCCc3sc(N)c(C#N)c32)nc2c1N(C)C(=O)CN2[C@@H]1CCOC1)[C@@H]1CCCN1C [I-37]	<24
CO[C@@H]1C[C@@H]([C@H](C)Oc2nc(-c3onc4c3CCC[C@@]43CCCc4sc(N)c(C#N)c43)nc3c2n(C)c(=O)n3[C@@H]2CCCOC2)N(C)C1 [I-14]	27
C[C@H](Oc1nc(-c2noc3c2CCC[C@@]32CCCc3sc(N)c(C#N)c32)nc2c1CN(c1ncccn1)[C@@]21CCOC1)[C@@H]1CCCN1C [II-7b]	<24

System: Ba/F3 cells KRAS G12V
Assay: Ba/F3 proliferation assay (KRAS G12V)
Assay type: cell-based
Settings: Mus musculus, BaF3, 72 h, AlamarBlue viability
Protocol: as §3, §4

Structure (SMILES)	IC50 [nM]
CCn1c(=O)n([C@@H]2CCCOC2)c2nc(-c3onc4c3CCC[C@@]43CCCc4sc(N)c(C#N)c43)nc(OCC3(CN4CCCC4)CC3)c21 [I-35]	104
Cc1nc2c(O[C@@H](C)[C@@H]3CCCN3C)nc(-c3onc4c3CCC[C@@]43CCCc4sc(N)c(C#N)c43)nc2n1[C@@H]1CCOC1 [I-39]	12
CO[C@@H]1C[C@@H]([C@H](C)Oc2nc(-c3onc4c3CCC[C@@]43CCCc4sc(N)c(C#N)c43)nc3c2CN(C2COC2)C[C@]32CCOC2)N(C)C1 [I-58]	2
COCCn1c(=O)n([C@@H]2CCOC2)c2nc(-c3onc4c3CCC[C@@]43CCCc4sc(N)c(C#N)c43)nc(O[C@@H](C)[C@@H]3CCCN3C)c21 [I-1]	8
C[C@H](Oc1nc(-c2onc3c2CCC[C@@]32CCCc3sc(N)c(C#N)c32)nc2c1n(C)c(=O)n2[C@@]12COC[C@@H]1C2)[C@@H]1CCCN1C [I-29]	1
C[C@H](Oc1nc(-c2onc3c2CCC[C@@]32CCCc3sc(N)c(C#N)c32)nc2c1N(C)C(=O)CN2[C@@H]1CCOC1)[C@@H]1CCCN1C [I-37]	127
CO[C@@H]1C[C@@H]([C@H](C)Oc2nc(-c3onc4c3CCC[C@@]43CCCc4sc(N)c(C#N)c43)nc3c2n(C)c(=O)n3[C@@H]2CCCOC2)N(C)C1 [I-14]	2
C[C@H](Oc1nc(-c2noc3c2CCC[C@@]32CCCc3sc(N)c(C#N)c32)nc2c1CN(c1ncccn1)[C@@]21CCOC1)[C@@H]1CCCN1C [II-7b]	37
